In this test the target is T1, human β3 adrenergic receptor (Homo sapiens, UniProt P13945).
T1 construct: stably transfected with the cloned β-adrenergic receptor (β1, β2 or β3); expressed in transfected cells; host or cells: Chinese hamster ovary (CHO) cells, stably transfected
In words: Functional assay: cAMP production (LANCE TR-FRET) in CHO cells stably transfected with cloned β3 adrenergic receptor. The class given is cell-based. The settings on record: cAMP production, CHO cells expressing human β3 AR. On the procedure: Functional Assay: cAMP production in response to ligand is measured according to Barton, et al. (1991, Agonist-induced desensitization of D2 dopamine receptors in human Y-79 retinoblastoma cells. Mol. Pharmacal. v3229:650-658) modified as follows, cAMP production is measured using a homogenous time-resolved fluorescence resonance energy transfer immunoassay (LANCE™, Perkin Elmer) according to the manufacture's instructions. Chinese hamster ovary (CHO) cells, stably transfected with the cloned β-adrenergic receptor (β1, β2 or β3) are harvested after 3 days of subculturing. Harvesting of cells is done with Enzyme-free Dissociation Media (Specialty Media). Cells are then counted and resuspended in assay buffer (Hank's Balanced salt solution supplemented with 5 mM HEPES, […]) containing a phosphodiesterase inhibitor (IBMX, 0.6 mM). The reaction is initiated by mixing 6,000 cells in 6 μL with 6 μL Alexa Fluor labeled cAMP antibody (LANCE™ kit) which is then added to an assay well containing 12 μL of compound (diluted in assay buffer to 2× final concentration). The reaction proceeds for 30 min at room temperature and is terminated by the addition of 24 ul detection buffer (LANCE™ kit). The assay plate is then incubated for 1 h at room temperature and time-resolved fluorescence measured on a Perkin Elmer Envision reader or equivalent. The unknown cAMP level is determined by comparing fluorescence levels to a cAMP standard curve.
The non-selective, full agonist β-adrenergic ligand isoproterenol is used at all three receptors to determine maximal stimulation. The human β3 adrenergic receptor (AR) selective ligand (S)-N-[4-[2-[[2-hydroxy-3-(4-hydroxyphenoxy)propyl]amino]ethyl]-phenyl]-4-iodobenzenesulfonamide is used as a control in all assays. Isoproterenol is titrated at a final concentration in the assay of 10^-10 M to 10-5 and the selective ligand (S)-N-[4-[2-[[2-hydroxy-3-(4-hydroxyphenoxy)propyl]amino]ethyl]phenyl]-4-iodobenzenesulfonamide is titrated at the β3 receptor at concentration of 10^-10 M to 10^-5 M. Unknown ligands are titrated at all 3 β-adrenergic receptor subtypes at a final concentration in the assay of 10^-10 M to 10^-5 M to determine the EC50. The EC50 is defined as the concentration of compound that gives 50% activation of its own maximum. Data are analyzed using Microsoft Excel and Graphpad Prism or an internally developed data analysis software package.
(In general: Changes in cAMP serve as a functional read-out for many G protein-coupled receptors.)

Setting [1] is: Table 2, read-out: Human β3 functional.
Setting [2] is: read-out: human Beta-3 agonist functional activity.
Where [3] appears, read: Table 3, read-out: Human β3 functional.

Each structure is given as a SMILES string. Where a name gives a salt, the structure may show the parent alone. Read-outs that look alike come from different tables or passages of the source.

T1 sequence (P13945 whole entry): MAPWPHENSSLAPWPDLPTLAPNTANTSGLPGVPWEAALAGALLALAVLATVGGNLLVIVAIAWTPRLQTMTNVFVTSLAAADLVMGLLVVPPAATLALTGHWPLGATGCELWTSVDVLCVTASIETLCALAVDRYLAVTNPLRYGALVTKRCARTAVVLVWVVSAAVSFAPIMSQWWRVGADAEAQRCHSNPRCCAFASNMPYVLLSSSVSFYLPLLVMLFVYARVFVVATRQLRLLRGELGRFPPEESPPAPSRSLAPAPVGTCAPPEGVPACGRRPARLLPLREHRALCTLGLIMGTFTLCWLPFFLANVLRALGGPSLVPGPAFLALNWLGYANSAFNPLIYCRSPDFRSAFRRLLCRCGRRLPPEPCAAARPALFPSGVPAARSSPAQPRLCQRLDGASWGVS

As for `O=C(Cn1cnc2ccccc2c1=O)Nc1ccc(CC2CC[C@H]([C@H](O)c3cccnc3)N2)cc1` (single isomer, unassigned) [Example 12], under setting [1], the EC50 was 1 to 10 nM.

Regarding `O=C(Cn1cnc2ccccc2c1=O)Nc1ccc(CC2CC[C@H]([C@H](O)c3cccnc3)N2)cc1` (single isomer, unassigned) [Example 64], under setting [1], the EC50 was 1 to 10 nM. For `C[C@H](C(=O)Nc1ccc(C[C@@H]2CC[C@H]([C@H](O)c3cccnc3)N2)cc1)c1ccccn1` (single isomer, unassigned) [Example 93, trifluoroacetic acid salt], the EC50 under setting [2] was < 100 nM.

For `C[C@@H](C(=O)Nc1ccc(C[C@@H]2CC[C@H]([C@H](O)c3cccnc3)N2)cc1)c1ccccn1` (single isomer, unassigned) [Example 94, trifluoroacetic acid salt], under setting [2], the EC50 is < 100 nM. On the same count and under the same terms, in the case of `C[C@@H](C(=O)Nc1ccc(C[C@@H]2CC[C@H]([C@H](O)c3cccnc3)N2)cc1)n1ccccc1=O` (single isomer, unassigned) [Example 95] it was < 10 nM.

Consider `C[C@H](C(=O)Nc1ccc(C[C@@H]2CC[C@H]([C@H](O)c3cccnc3)N2)cc1)n1ccccc1=O` (single isomer, unassigned) [Example 96, trifluoroacetic acid salt], for which the EC50 under setting [2] is < 10 nM. Take `CC(C(=O)Nc1ccc(CC2CC[C@H]([C@H](O)c3cccnc3)N2)cc1)n1cccn1` (single isomer, unassigned) [Example 97]: the EC50 under setting [3] lay within 11 to 100 nM. Same read-out and setting: to `CC(C(=O)Nc1ccc(CC2CC[C@H]([C@H](O)c3cccnc3)N2)cc1)n1cccn1` (single isomer, unassigned) [Example 98] belongs 11 to 100 nM; to `Cc1ccn(C(C)C(=O)Nc2ccc(CC3CC[C@H]([C@H](O)c4cccnc4)N3)cc2)n1` (single isomer, unassigned) [Example 99], 11 to 100 nM.

Regarding `Cc1ccn(C(C)C(=O)Nc2ccc(CC3CC[C@H]([C@H](O)c4cccnc4)N3)cc2)n1` (single isomer, unassigned) [Example 100], the EC50 under setting [3] was in the range of 1000 to 3000 nM. Same read-out and setting: in the case of `Cc1nc(C(C)C(=O)Nc2ccc(CC3CC[C@H]([C@H](O)c4cccnc4)N3)cc2)cs1` (single isomer, unassigned) [Example 101] it was 1 to 10 nM. Same read-out and setting: in the case of `Cc1nc(C(C)C(=O)Nc2ccc(CC3CC[C@H]([C@H](O)c4cccnc4)N3)cc2)cs1` (single isomer, unassigned) [Example 102] it was 101 to 1000 nM. On the same count and under the same terms, to `Cc1nc(C(C)C(=O)Nc2ccc(CC3CC[C@H]([C@H](O)c4cccnc4)N3)cc2)c(C)s1` (single isomer, unassigned) [Example 103] belongs 101 to 1000 nM; to `Cc1nc(C(C)C(=O)Nc2ccc(CC3CC[C@H]([C@H](O)c4cccnc4)N3)cc2)c(C)s1` (single isomer, unassigned) [Example 104], 1000 to 3000 nM.

With `CC(C(=O)Nc1ccc(CC2CC[C@H]([C@H](O)c3cccnc3)N2)cc1)c1csc(N)n1` (single isomer, unassigned) [Example 105], under setting [3], the EC50 was in the range of 1 to 10 nM. The same measure, in the same setting: in the case of `CC(C(=O)Nc1ccc(CC2CC[C@H]([C@H](O)c3cccnc3)N2)cc1)c1csc(N)n1` (single isomer, unassigned) [Example 106] it was 1 to 10 nM; in that of `CCCC(C(=O)Nc1ccc(CC2CC[C@H]([C@H](O)c3cccnc3)N2)cc1)c1csc(N)n1` (single isomer, unassigned) [Example 107], 11 to 100 nM. Turning to `CCCC(C(=O)Nc1ccc(CC2CC[C@H]([C@H](O)c3cccnc3)N2)cc1)c1csc(N)n1` (single isomer, unassigned) [Example 108], the EC50 under setting [3] lay in the range of 1 to 10 nM. Same read-out and setting: in the case of `CCCC(C(=O)Nc1ccc(CC2CC[C@H]([C@H](O)c3cccnc3)N2)cc1)c1cnc(N)s1` (single isomer, unassigned) [Example 109] it was 1 to 10 nM. For `C#CCC(C(=O)Nc1ccc(CC2CC[C@H]([C@H](O)c3cccnc3)N2)cc1)c1cnc(N)s1` (single isomer, unassigned) [Example 110], the EC50 under setting [3] lay in the range of 1 to 10 nM.

(Values after patent publication US8501786B2, “Hydroxymethyl pyrrolidines as beta 3 adrenergic receptor agonists” (Merck Sharp & Dohme Corp., priority 2009, dated 2013).)
